In patent US7544689B2, “Purine derivatives” (Cyclacel Limited, priority 2002, dated 2009):

What was measured:
CDK4/cyclin D1 = molecular target: T1, CDK4/cyclin D1 (Homo sapiens, UniProt P11802); assay: Kinase assay, CDK4/cyclin D1 inhibition; format: biochemical
T1 construct: His6; made in house; host or cells: CDK4: Sf9 insect cells (baculovirus); cyclin D1: E. coli
Experimental: (§1) Recombinant cyclin DI was expressed in E. coli. Proteins were purified by metal chelate affnity chromatography to greater than 90% homogeneity. […] Reactions were stopped on ice, followed by filtration through p81 filterplates or GF/C filterplates (for CDK4) (Whatman Polyfiltronics, Kent, UK), except for CDK7 where, after stopping reaction on ice, 10 μL of 10 mg/mL avidin was added to each well and further incubated for 10 min followed by filtration as per CDK2 assay. After washing 3 times with 75 mM aq orthophosphoric acid, plates were dried, scintillant added and incorporated radioactivity measured in a scintillation counter (TopCount, Packard Instruments, Pangbourne, Berks, UK). Compounds for kinase assay were made up as 10 mM stocks in DMSO and diluted into 10% DMSO in assay buffer.

[1] = system: Human tumour cell lines: A549, HT29, Saos-2; assay: 72-h MTT cytotoxicity assay; format: cell-based; conditions: for IC50: read-out: In vitro anti-proliferative activity (72 h MTT IC50), 72 h MTT, human tumour cell lines A549, HT29, Saos-2
Experimental: In short: cells were seeded into 96-well plates according to doubling time and incubated overnight at 37° C. Test compounds were made up in DMSO and a 1/3 dilution series prepared in 100 μL cell media, added to cells (in triplicates) and incubated for 72 ho at 37° C. MTT was made up as a stock of 5 mg/mL in cell media and filter-sterilised. Media was removed from cells followed by a wash with 200 μL PBS. MTT solution was then added at 20 μL per well and incubated in the dark at 37° C. for 4 h. MTT solution was removed and cells again washed with 200 μL PBS. MTT dye was solubilised with 200 μL per well of DMSO with agitation.

CDK1/cyclin B = molecular target: T2, CDK1/cyclin B (Homo sapiens, UniProt P06493); assay: Kinase assay, CDK1/cyclin B inhibition; format: biochemical
T2 construct: His6; made in house; host or cells: Sf9 insect cells (baculovirus)
Experimental: as §1

[2] = molecular target: T3, cyclic AMP-dependent kinase (PKA) catalytic subunit (Homo sapiens, UniProt P17612); assay: Kinase assay, PKA inhibition; format: biochemical
T3 construct: purchased Calbiochem 539487
Experimental: as §1

CDK2/cyclin E = molecular target: T4, CDK2/cyclin E (Homo sapiens, UniProt P24941); assay: Kinase assay, CDK2/cyclin E inhibition; format: biochemical
T4 construct: His6; made in house; host or cells: Sf9 insect cells (baculovirus)
Experimental: as §1

CDK7/cyclin H = molecular target: T5, CDK7/cyclin H (Homo sapiens, UniProt P50613); assay: Kinase assay, CDK7/cyclin H inhibition; format: biochemical
T5 construct: His6; made in house; host or cells: Sf9 insect cells (baculovirus)
Experimental: as §1

ERK2 = molecular target: T6, ERK2 (Homo sapiens, UniProt P28482); assay: Kinase assay, ERK-2 inhibition; format: biochemical
T6 construct: purchased Upstate Biotechnology
Experimental: Reactions were stopped on ice, followed by filtration through p81 filterplates or GF/C filterplates (for CDK4) (Whatman Polyfiltronics, Kent, UK), except for CDK7 where, after stopping reaction on ice, 10 μL of 10 mg/mL avidin was added to each well and further incubated for 10 min followed by filtration as per CDK2 assay. After washing 3 times with 75 mM aq orthophosphoric acid, plates were dried, scintillant added and incorporated radioactivity measured in a scintillation counter (TopCount, Packard Instruments, Pangbourne, Berks, UK). Compounds for kinase assay were made up as 10 mM stocks in DMSO and diluted into 10% DMSO in assay buffer.

[3] = Comparative in vitro metabolism assay (microsomal incubation); conditions: for % Drug after 30 min. microsomal incubation: 10 μM compound, 0.2 mg microsomal protein, NADPH; for A: % Compound remaining/% roscovitine remaining: ratio to roscovitine, 30 min microsomal incubation
Experimental: Calibration curves were prepared at 0, 1, and 10 μM in microsomes pre-incubated for 30 min and these were also treated with methanol containing olomoucine. All samples were then centrifuged and the supernatants analysed by liquid chromatography-mass spectrometry.
The chromatography column was a Supelco LC-ABZ, 50×4.6 mm, 5 μm zwitterionic column (Supelco Inc., Supelco Park, Bellefonte, Pa., USA). Gradient eluants consisted of methanol (A) and 0.1% formic acid in water (B). […] The flow rate was 1 mL/min throughout. […] Eluant from the detector passed, without splitting, into a Thermoquest LCQ ion trap mass spectrometer fitted with an electrospray source operated in positive mode. Mass spectrometer conditions were sheath gas 80, auxiliary gas 20 (both arbitrary units), capillary voltage 4 to 4.5 kV and heated capillary temperature 250 to 280° C. The mass range was 50-750. Scan time was controlled by the ion trap which was set to a maximum ion injection-time of 200 ms or the time required to inject 2×10^8 ions; for each scan the system automatically used whichever time was reached first.

[4] = system: representative panel of human transformed tumour cell lines; assay: Average anti-proliferative activity in tumour cell line panel; format: cell-based; conditions: average over representative panel of human transformed tumour cell lines

T5 sequence (P50613 whole entry): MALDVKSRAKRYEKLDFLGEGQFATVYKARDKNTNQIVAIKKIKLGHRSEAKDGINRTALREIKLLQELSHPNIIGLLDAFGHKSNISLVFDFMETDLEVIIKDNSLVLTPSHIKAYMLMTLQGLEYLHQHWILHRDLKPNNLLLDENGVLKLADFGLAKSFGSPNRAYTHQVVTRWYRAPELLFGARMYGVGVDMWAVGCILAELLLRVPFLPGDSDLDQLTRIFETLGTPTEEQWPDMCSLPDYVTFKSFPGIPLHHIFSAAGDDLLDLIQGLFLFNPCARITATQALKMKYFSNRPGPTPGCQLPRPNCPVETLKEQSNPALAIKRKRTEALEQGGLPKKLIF
T5 sequence (P51946 whole entry partner): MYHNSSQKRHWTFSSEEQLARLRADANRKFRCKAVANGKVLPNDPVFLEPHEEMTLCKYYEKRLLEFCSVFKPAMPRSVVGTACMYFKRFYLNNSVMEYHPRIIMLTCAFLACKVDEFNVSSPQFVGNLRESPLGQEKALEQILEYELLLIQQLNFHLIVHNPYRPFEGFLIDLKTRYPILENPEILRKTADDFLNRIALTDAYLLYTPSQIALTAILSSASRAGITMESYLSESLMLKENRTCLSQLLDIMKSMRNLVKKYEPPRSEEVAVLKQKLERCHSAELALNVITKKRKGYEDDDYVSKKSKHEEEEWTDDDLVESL
T2 sequence (P06493 whole entry): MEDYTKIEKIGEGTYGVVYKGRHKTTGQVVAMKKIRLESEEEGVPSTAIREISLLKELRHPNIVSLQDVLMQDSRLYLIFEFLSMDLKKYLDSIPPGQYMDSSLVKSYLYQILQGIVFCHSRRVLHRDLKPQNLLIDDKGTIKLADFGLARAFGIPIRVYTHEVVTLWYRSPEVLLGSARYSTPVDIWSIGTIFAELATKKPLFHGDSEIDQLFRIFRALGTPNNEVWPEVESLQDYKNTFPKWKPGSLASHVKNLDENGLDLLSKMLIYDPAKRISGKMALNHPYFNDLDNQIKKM
T2 sequence (P14635 whole entry partner): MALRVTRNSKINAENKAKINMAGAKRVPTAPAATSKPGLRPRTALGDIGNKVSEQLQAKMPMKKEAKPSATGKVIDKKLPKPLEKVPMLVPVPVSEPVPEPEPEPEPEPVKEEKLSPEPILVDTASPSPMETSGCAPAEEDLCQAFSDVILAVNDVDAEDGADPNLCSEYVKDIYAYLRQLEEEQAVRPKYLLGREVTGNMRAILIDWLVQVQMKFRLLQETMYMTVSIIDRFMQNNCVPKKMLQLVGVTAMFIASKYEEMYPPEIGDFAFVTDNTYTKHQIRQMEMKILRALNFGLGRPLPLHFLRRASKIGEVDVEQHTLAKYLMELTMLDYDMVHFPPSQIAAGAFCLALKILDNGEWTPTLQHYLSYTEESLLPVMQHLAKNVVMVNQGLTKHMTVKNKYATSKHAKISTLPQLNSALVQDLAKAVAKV
T1 sequence (P11802 whole entry): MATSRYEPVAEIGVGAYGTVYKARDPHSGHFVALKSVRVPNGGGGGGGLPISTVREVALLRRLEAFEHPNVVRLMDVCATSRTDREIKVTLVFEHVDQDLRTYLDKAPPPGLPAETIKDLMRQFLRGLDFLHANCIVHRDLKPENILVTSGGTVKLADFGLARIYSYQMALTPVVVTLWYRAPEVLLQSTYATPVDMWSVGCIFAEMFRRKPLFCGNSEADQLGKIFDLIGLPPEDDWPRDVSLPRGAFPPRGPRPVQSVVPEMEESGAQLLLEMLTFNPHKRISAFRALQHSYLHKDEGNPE
T1 sequence (P24385 whole entry partner): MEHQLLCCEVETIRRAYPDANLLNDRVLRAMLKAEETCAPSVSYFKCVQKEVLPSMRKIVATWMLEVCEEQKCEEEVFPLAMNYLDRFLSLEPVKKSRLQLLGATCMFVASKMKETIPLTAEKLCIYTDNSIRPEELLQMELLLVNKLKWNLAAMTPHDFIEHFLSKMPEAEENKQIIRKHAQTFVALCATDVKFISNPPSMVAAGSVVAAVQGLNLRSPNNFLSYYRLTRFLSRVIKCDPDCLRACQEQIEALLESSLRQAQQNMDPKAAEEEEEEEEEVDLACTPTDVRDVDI
T6 sequence (P28482 whole entry, species assumed): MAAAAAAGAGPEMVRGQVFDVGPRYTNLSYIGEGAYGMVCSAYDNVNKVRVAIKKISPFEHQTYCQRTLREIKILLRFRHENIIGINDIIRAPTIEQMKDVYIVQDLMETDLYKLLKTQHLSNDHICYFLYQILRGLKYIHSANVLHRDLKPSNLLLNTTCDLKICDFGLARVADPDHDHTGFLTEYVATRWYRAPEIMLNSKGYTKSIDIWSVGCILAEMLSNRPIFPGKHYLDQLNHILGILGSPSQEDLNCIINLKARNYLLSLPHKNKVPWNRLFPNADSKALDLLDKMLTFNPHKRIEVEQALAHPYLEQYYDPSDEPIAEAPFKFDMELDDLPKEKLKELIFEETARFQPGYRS

SMILES	IC50 (CDK4/cyclin D1)	IC50 (CDK1/cyclin B)	IC50 [2]	IC50 (CDK2/cyclin E)	IC50 (CDK7/cyclin H)	IC50 (ERK2)	A × B (CDK2/cyclin E; comparative in vitro efficacy: metabolism ratio × CDK2 ratio)	B: IC50 CDK2 roscovitine/IC50 CDK2 compound (CDK2/cyclin E; ratio to roscovitine)	IC50 [4]	IC50 [1]	% Drug after 30 min. microsomal incubation [3]	A: % Compound remaining/% roscovitine remaining [3]	C: IC50 cytotox. roscovitine/IC50 cytotox. compound ([1]; ratio to roscovitine)
CC[C@@H](Nc1nc(NCc2ccccn2)c2ncn(C(C)C)c2n1)C(O)C(C)(C)C (mixture of isomers) [(3RS,4R)-4-{9-Isopropyl-6-[(pyridin-2-ylmethyl)-amino]-9H-purin-2-ylamino}-2,2-dimethyl-hexan-3-ol]	38 µM	> 200 µM	> 200 µM	2.8 µM	2.4 µM	> 200 µM				38 µM			
CC[C@@H](Nc1nc(NCc2ccccn2)c2ncn(C(C)C)c2n1)C(C)(C)O [(3R)-3-{9-Isopropyl-6-[(pyridin-2-ylmethyl)-amino]-9H-purin-2-ylamino}-2-methyl-pentan-2-ol]	18 µM	44 µM	> 200 µM	0.48 µM	4.2 µM	> 200 µM				35 µM			
CC[C@H](CO)Nc1nc(NCc2ccccc2)c2ncn(C(C)C)c2n1 [Roscovitine, reference compound]											33%	1.0	
CC[C@@H](Nc1nc(NCc2ccccn2)c2ncn(C(C)C)c2n1)C(O)C(C)C (mixture of isomers) [(3RS,4R)-4-{9-Isopropyl-6-[(pyridin-2-ylmethyl)-amino]-9H-purin-2-ylamino}-2-methyl-hexan-3-ol]	32 µM	84 µM	> 200 µM	3.4 µM	3.9 µM	> 200 µM				23 µM			
CC[C@H](Nc1nc(NCc2ccccn2)c2ncn(C(C)C)c2n1)[C@@H](C)O [(2R3S)-3-{9-Isopropyl-6-[(pyridin-2-ylmethyl)-amino]-9H-purin-2-ylamino}-pentan-2-ol]	18 µM	8.9 µM	> 200 µM	0.05 µM	2.6 µM	77 µM	1.9	1.9		9.8 µM	33%	1.0	1.2
CCC(O)[C@@H](CC)Nc1nc(NCc2ccccn2)c2ncn(C(C)C)c2n1 (mixture of isomers) [(3RS,4R)-4-{9-Isopropyl-6-[(pyridin-2-ylmethyl)-amino]-9H-purin-2-ylamino}-hexan-3-ol]	20 µM	35 µM	> 200 µM	0.77 µM	1.2 µM	230 µM				19 µM			

Second part, led by results:

IC50 (CDK4/cyclin D1)	IC50 (CDK1/cyclin B)	IC50 [2]	IC50 (CDK2/cyclin E)	IC50 (CDK7/cyclin H)	IC50 (ERK2)	A × B (CDK2/cyclin E; comparative in vitro efficacy: metabolism ratio × CDK2 ratio)	B: IC50 CDK2 roscovitine/IC50 CDK2 compound (CDK2/cyclin E; ratio to roscovitine)	IC50 [4]	SMILES	IC50 [1]	% Drug after 30 min. microsomal incubation [3]	A: % Compound remaining/% roscovitine remaining [3]	C: IC50 cytotox. roscovitine/IC50 cytotox. compound ([1]; ratio to roscovitine)
48 µM	39 µM	> 200 µM	0.52 µM	0.55 µM	73 µM				CC[C@@H](Nc1nc(NCc2ccccn2)c2ncn(C(C)C)c2n1)[C@H](C)O [(2S3R)-3-{9-Isopropyl-6-[(pyridin-2-ylmethyl)-amino]-9H-purin-2-ylamino}-pentan-2-ol]	12 µM			
49 µM	> 200 µM	> 200 µM	3.1 µM	3.3 µM	> 200 µM				CC[C@H](Nc1nc(NCc2ccccn2)c2ncn(C(C)C)c2n1)C(O)C(C)C (mixture of isomers) [(3RS,4S)-4-{9-Isopropyl-6-[(pyridin-2-ylmethyl)-amino]-9H-purin-2-ylamino}-2-methyl-hexan-3-ol]	26 µM			
22 µM	> 200 µM	> 200 µM	1 µM	5.8 µM	137 µM				CC[C@H](Nc1nc(NCc2ccccn2)c2ncn(C(C)C)c2n1)C(O)C(C)(C)C (mixture of isomers) [(3RS,4S)-4-{9-Isopropyl-6-[(pyridin-2-ylmethyl)-amino]-9H-purin-2-ylamino}-2,2-dimethyl-hexan-3-ol]	33 µM			
24 µM	40 µM	> 200 µM	0.42 µM	2.6 µM	80 µM				CCC(O)[C@H](CC)Nc1nc(NCc2ccccn2)c2ncn(C(C)C)c2n1 (mixture of isomers) [(3RS,4S)-4-{9-Isopropyl-6-[(pyridin-2-ylmethyl)-amino]-9H-purin-2-ylamino}-hexan-3-ol]	27 µM			
								> 50 µM	CC[C@@H](Nc1nc(NCc2ccccc2)c2ncn(C(C)C)c2n1)C(=O)O [carboxyl derivative, (2R)-2-(6-Benzylamino-9-isopropyl-9H-purin-2-ylamino)-butyric acid]				
